Source: paper PMC6155576, “Anti-Neuroinflammatory ent-Kaurane Diterpenoids from Pteris multifida Roots” (Molecules : A Journal of Synthetic Chemistry and Natural …, 2016)

Key:
[1] = tested on: BV-2 cells; assay: Cell viability by MTT assay; format: cell-based, mouse; conditions: BV-2 cells, result in words
Method: (§1) The BV-2 mouse microglial cells were generously provided by Dr. Sun Yeou Kim at Kyunghee University (Suwon, Korea). The cells were maintained in DMEM containing 10% FBS with 1% PS at 37 °C in a humidified atmosphere of 95% air and 5% CO2. All tested fractions and samples were dissolved in DMSO (final concentration in cultures ≤0.1%).
(§2) To evaluate NO production, we seeded BV-2 cells in 96-well plates (4 × 10^5 cells/mL) for 24 h and then treated them with various concentrations of the samples for 1 h before exposure to 100 ng/mL of LPS. After the 24 h incubation, the nitrite in the culture media was measured to assess NO production in the BV-2 cells with the Griess reagent (1% sulfanilamide and 0.1% naphtylethylenediamine dihydrochloride in 2% phosphoric acid). In 96-well plates, 100 μL of sample aliquots were mixed with 100 μL of Griess reagent and incubated at room temperature for 15 min. The absorbance at 550 nm was measured on a microplate reader. The concentration was determined with a nitrite standard curve. Cell viability was assessed by the MTT assay. After exposing the cells to 2 mg/mL MTT for 2 h, the absorbance was measured by an ELISA plate reader at 562 nm.

[2] = Cell viability by MTT assay; format: cell-based, mouse; conditions: mouse, BV-2 microglial cells; MTT assay after treatment with 100 μM of each compound for 24 h; mean ± SD
Method: as §1, §2

[3] = tested on: TNF-α; assay: TNF-α ELISA in LPS-activated BV-2 microglia; format: cell-based, mouse; conditions: pre-treatment, dose-dependent, result in words
Method: (§3) BV-2 microglial cells were cultured in 96-well plates, preincubated for 30 min. with different concentrations of compounds 1 and 7 and then stimulated for 24 h with LPS (Sigma-Aldrich Co.). Supernatant from the culture (100 μL) was collected to determine the concentration of PGE2, TNF-α, IL-1β, and IL-6, respectively, with ELISA kits (TNF-α, Abcam, Cambridge, MA, USA; PGE2, IL-1β, and IL-6, R&D Systems, Minneapolis, MN, USA).

[4] = tested on: NO production in LPS-activated BV-2 cells; assay: NO production assay (Griess reagent) in LPS-activated BV-2 cells; format: cell-based; conditions: Mus musculus; LPS-stimulated BV-2 cells; samples 1 h before 100 ng/mL LPS, 24 h incubation; read-out: IC50, concentration that caused 50% inhibition of NO production
Method: as §1, §2

[5] = tested on: PGE2; assay: PGE2 ELISA in LPS-activated BV-2 microglia; format: cell-based, mouse; conditions: pre-treatment, dose-dependent, result in words
Method: as §3

[6] = tested on: cyclooxygenase-2 (COX-2) protein expression; assay: Western blot of COX-2 expression in LPS-activated BV-2 microglia; format: cell-based, mouse; conditions: result in words
Method: Cells were harvested and lysed with radioimmunoprecipitation (RIPA) buffer (Bio-Rad, Hercules, CA USA). Cell lysates were centrifuged, and the supernatant was collected. The protein concentration was determined by protein assay reagents (Bio-Rad). The proteins were separated onto 10% SDS-polyacrylamide gel and transferred to polyvinylidene fluoride (PVDF) membrane. The membranes were blocked with 5% non-fat dry milk in Tris-buffered saline with 0.1% Tween-20 (TBS-T) buffer for 1 h at room temperature and then incubated with primary antibodies in TBS-T buffer containing 1% non-fat dry milk overnight at 4 °C. The membranes were washed with TBS-T buffer and incubated with goat anti-rabbit or anti-mouse horseradish peroxidase-conjugated IgG secondary antibodies from Santa Cruz Biotechnology (Santa Cruz, CA, USA) for 2 h. The membranes were washed with TBS-T buffer, and the antigen-antibody complex was detected with an enhanced chemiluminescence detection system (GE Healthcare, Milwaukee, MI, USA).

[7] = tested on: IL-6; assay: IL-6 ELISA in LPS-activated BV-2 microglia; format: cell-based, mouse; conditions: pre-treatment, dose-dependent, result in words
Method: as §3

[8] = tested on: IL-1β; assay: IL-1β ELISA in LPS-activated BV-2 microglia; format: cell-based, mouse; conditions: pre-treatment, dose-dependent, result in words
Method: as §3

C=C1[C@@H]2CC[C@H]3[C@]4(C)C[C@H](O)CC(C)(C)[C@H]4CC[C@]3(C2)[C@H]1O [Compound 1, 2β,15α-dihydroxy-ent-kaur-16-ene]
Cytotoxicity [1]: without any cytotoxicity | viability at 24 h, 100 μM [2]: 90.7 ± 7.3% | Level of TNF-α [3]: effectively decreased | IC50 [4]: 13.9 µM | Level of PGE2 [5]: effectively decreased | Protein level of COX-2 increased by LPS treatment [6]: down-regulated | Level of IL-6 [7]: effectively decreased | Level of IL-1β [8]: effectively decreased

C=C1[C@@H]2CC[C@H]3[C@]4(C)C[C@H](O[C@@H]5O[C@H](CO)[C@@H](O)[C@H](O)[C@H]5O)CC(C)(C)[C@H]4CC[C@]3(C2)[C@H]1O [Compound 2, creticoside A]
viability at 24 h, 100 μM [2]: 95.7 ± 4% | IC50 [4]: 92 µM

C=C1[C@@H]2CC[C@H]3[C@]4(C)C[C@H](O)C[C@](C)(CO)[C@H]4CC[C@]3(C2)[C@H]1O [Compound 3, pterokaurane M1]
viability at 24 h, 100 μM [2]: 87.7 ± 2.9% | IC50 [4]: 84 µM

C=C1[C@@H]2CC[C@H]3[C@]4(C)C[C@H](O[C@@H]5O[C@H](CO)[C@@H](O)[C@H](O)[C@H]5O)C[C@](C)(CO)[C@H]4CC[C@]3(C2)[C@H]1O [Compound 4, pterokaurane M1 2-O-β-D-glucopyranoside]
viability at 24 h, 100 μM [2]: 90.5 ± 10.2% | IC50 [4]: 148 µM

C=C1[C@@H]2CC[C@H]3[C@]4(C)C[C@H](O[C@@H]5O[C@H](CO)[C@@H](O)[C@H](O)[C@H]5O)C[C@@](C)(CO)[C@H]4CC[C@]3(C2)[C@H]1O [Compound 5, 2β,15α,19-trihydroxy-ent-kaur-16-ene 2-O-β-D-gluco-pyranoside]
viability at 24 h, 100 μM [2]: 73.6 ± 2.9% | IC50 [4]: 148 µM

C=C1[C@@H]2CC[C@H]3[C@]4(C)C[C@H](O)CC(C)(C)[C@H]4[C@H](O)C[C@]3(C2)[C@H]1O [Compound 6, 2β,6β,15α-trihydroxy-ent-kaur-16-ene]
viability at 24 h, 100 μM [2]: 85.9 ± 0.1% | IC50 [4]: 137 µM

C=C1[C@@H]2CC[C@H]3[C@]4(C)C[C@H](O)CC(C)(C)[C@H]4CC[C@]3([C@@H]2O)[C@H]1O [Compound 7, pterokaurane P1]
Cytotoxicity [1]: without any cytotoxicity | viability at 24 h, 100 μM [2]: 88.7 ± 2.4% | Level of TNF-α [3]: effectively decreased | IC50 [4]: 10.8 µM | Level of PGE2 [5]: effectively decreased | Protein level of COX-2 increased by LPS treatment [6]: down-regulated | Level of IL-6 [7]: effectively decreased | Level of IL-1β [8]: effectively decreased

C=C1[C@@H]2CC[C@H]3[C@]4(C)C[C@H](O[C@@H]5O[C@H](CO)[C@@H](O)[C@H](O)[C@H]5O)CC(C)(C)[C@H]4CC[C@]3([C@@H]2O)[C@H]1O [Compound 8, pterokaurane P1 2-O-β-D-glucopyranoside]
viability at 24 h, 100 μM [2]: 91.7 ± 3.7% | IC50 [4]: 101 µM

CC1(C)C[C@@H](O)C[C@]2(C)[C@@H]1CC[C@@]13C[C@@H](CC[C@H]12)[C@](C)(O)C3 [Compound 9, 2β,16α-dihydroxy-ent-kaurane]
viability at 24 h, 100 μM [2]: 97.5 ± 1.3% | IC50 [4]: 122 µM

CC1(C)C[C@@H](O[C@@H]2O[C@H](CO)[C@@H](O)[C@H](O)[C@H]2O)C[C@]2(C)[C@@H]1CC[C@@]13C[C@@H](CC[C@H]12)[C@](C)(O[C@@H]1O[C@H](CO)[C@@H](O)[C@H](O)[C@H]1O)C3 [Compound 10, 2β,16α-dihydroxy-ent-kaurane 2,16-di-O-β-D-glucopyranoside]
viability at 24 h, 100 μM [2]: 88.2 ± 8% | IC50 [4]: 182 µM

C[C@]1(CO)C[C@@H](O)C[C@]2(C)[C@@H]1CC[C@@]13C[C@@H](CC[C@H]12)[C@](C)(O)C3 [Compound 11, pterokaurane R]
viability at 24 h, 100 μM [2]: 83.2 ± 10.2% | IC50 [4]: 171 µM

CC1(C)C[C@@H](O[C@@H]2O[C@H](CO)[C@@H](O)[C@H](O)[C@H]2O)C[C@]2(C)[C@@H]1CC[C@@]13C[C@@H](CC[C@H]12)[C@@](O)(CO)C3 [Compound 12, 2β,16α,17-trihydroxy-ent-kaurane 2-O-β-D-glucopyranoside]
viability at 24 h, 100 μM [2]: 93.6 ± 8.3% | IC50 [4]: 114 µM

COC(=O)[C@@H](N)CCCNC(N)=N[N+](=O)[O-] [L-NAME, Nω-nitro-L-arginine methyl ester, reference compound]
viability at 24 h, 100 μM [2]: 100 ± 5% | IC50 [4]: 53.5 µM
